Assay results: ChEMBL document CHEMBL3232987, “Investigation of Ugi-4CC derived 1H-tetrazol-5-yl-(aryl) methyl piperazinyl-6-fluoro-4-oxo-1,4-dihydroquinoline-3-carboxylic acid: synthesis, biology and 3D-QSAR analysis” (Eur J Med Chem, 2014)
In brackets after ≈: the same amount, converted by molar mass.

What was measured:
Staphylococcus aureus [1] = test: Antibacterial activity against Staphylococcus aureus ATCC 25923 by NCCLS two-fold dilution method; assay type: functional; settings: for MIC: Staphylococcus aureus, ATCC 25923
Staphylococcus aureus [2] = test: Antibacterial activity against methicillin-resistant Staphylococcus aureus ATCC 700699 after 24 hrs by spectrophotometric analysis; assay type: functional, organism-based; settings: Staphylococcus aureus, ATCC 700699, 24 h; for IC50: read-out: IC50
Staphylococcus aureus [3] = test: Antibacterial activity against methicillin-resistant Staphylococcus aureus ATCC 700699 by NCCLS two-fold dilution method; assay type: functional
Staphylococcus aureus [4] = test: Antibacterial activity against Staphylococcus aureus ATCC 25923 after 24 hrs by spectrophotometric analysis; assay type: functional, organism-based; settings: Staphylococcus aureus, ATCC 25923, 24 h; for IC50: read-out: IC50
Staphylococcus aureus [5] = test: Antibacterial activity against gentamicin-resistant Staphylococcus aureus ATCC 33592 after 24 hrs by spectrophotometric analysis; assay type: functional, organism-based; settings: Staphylococcus aureus, ATCC 33592, 24 h; for IC50: read-out: IC50
Staphylococcus aureus [6] = test: Antibacterial activity against gentamicin-resistant Staphylococcus aureus ATCC 33592 by NCCLS two-fold dilution method; assay type: functional
Staphylococcus aureus [7] = test: Antibacterial activity against Staphylococcus aureus ATCC 29213 after 24 hrs by spectrophotometric analysis; assay type: functional, organism-based; settings: Staphylococcus aureus, ATCC 29213, 24 h; for IC50: read-out: IC50
Staphylococcus aureus [8] = test: Antibacterial activity against Staphylococcus aureus ATCC 29213 by NCCLS two-fold dilution method; assay type: functional

SMILES | -logMIC (Staphylococcus aureus [1]) | MIC (Staphylococcus aureus [1]) | MIC (Staphylococcus aureus [2]) | IC50 (Staphylococcus aureus [2]) | MIC (Staphylococcus aureus [3]) | MIC (Staphylococcus aureus [4]) | IC50 (Staphylococcus aureus [4]) | MIC (Staphylococcus aureus [5]) | IC50 (Staphylococcus aureus [5]) | MIC (Staphylococcus aureus [6]) | MIC (Staphylococcus aureus [7]) | IC50 (Staphylococcus aureus [7]) | MIC (Staphylococcus aureus [8])
CCn1cc(C(=O)O)c(=O)c2cc(F)c(N3CCN(C(c4ccc(C(C)C)cc4)c4nnnn4C4CCCCC4)CC3)cc21 (stereo unspecified) | 4.682 | 12.5 µg/mL (≈ 20.8 µM) | 50 µg/mL (≈ 83.1 µM) | 50 µg/mL (≈ 83.1 µM) | 50 µg/mL (≈ 83.1 µM) | 19 µg/mL (≈ 31.6 µM) | 8 µg/mL (≈ 13.3 µM) | 1.6 µg/mL (≈ 2.66 µM) | 1.5 µg/mL (≈ 2.49 µM) | 3.12 µg/mL (≈ 5.19 µM) | 3.3 µg/mL (≈ 5.48 µM) | 3.1 µg/mL (≈ 5.15 µM) | 12.5 µg/mL (≈ 20.8 µM)
CC(C)(C)n1nnnc1C(c1ccco1)N1CCN(c2cc3c(cc2F)c(=O)c(C(=O)O)cn3Cc2ccc(C(F)(F)F)cc2)CC1 (stereo unspecified) | – | 50 µg/mL (≈ 76.5 µM) | 50 µg/mL (≈ 76.5 µM) | 50 µg/mL (≈ 76.5 µM) | 50 µg/mL (≈ 76.5 µM) | 50 µg/mL (≈ 76.5 µM) | 50 µg/mL (≈ 76.5 µM) | 50 µg/mL (≈ 76.5 µM) | 50 µg/mL (≈ 76.5 µM) | 12.5 µg/mL (≈ 19.1 µM) | 50 µg/mL (≈ 76.5 µM) | 50 µg/mL (≈ 76.5 µM) | 25 µg/mL (≈ 38.2 µM)
CC(C)(C)n1nnnc1C(c1cccc2ccccc12)N1CCN(c2cc3c(cc2F)c(=O)c(C(=O)O)cn3Cc2ccc(C(F)(F)F)cc2)CC1 (stereo unspecified) | 4.455 | 50 µg/mL (≈ 70.1 µM) | 50 µg/mL (≈ 70.1 µM) | 50 µg/mL (≈ 70.1 µM) | 50 µg/mL (≈ 70.1 µM) | 50 µg/mL (≈ 70.1 µM) | 50 µg/mL (≈ 70.1 µM) | > 50 µg/mL | > 50 µg/mL | 50 µg/mL (≈ 70.1 µM) | 50 µg/mL (≈ 70.1 µM) | > 50 µg/mL | 50 µg/mL (≈ 70.1 µM)
O=C(O)c1cn(Cc2ccc(C(F)(F)F)cc2)c2cc(N3CCN(C(c4ccccc4)c4nnnn4C4CCCCC4)CC3)c(F)cc2c1=O (stereo unspecified) | 4.741 | 12.5 µg/mL (≈ 18.1 µM) | > 50 µg/mL | > 50 µg/mL | > 50 µg/mL | 17.5 µg/mL (≈ 25.4 µM) | 5.2 µg/mL (≈ 7.54 µM) | 40.5 µg/mL (≈ 58.7 µM) | 21 µg/mL (≈ 30.4 µM) | 25 µg/mL (≈ 36.2 µM) | 4.4 µg/mL (≈ 6.38 µM) | 2.2 µg/mL (≈ 3.19 µM) | 6.25 µg/mL (≈ 9.06 µM)
CC(C)(C)n1nnnc1C(c1ccccc1)N1CCN(c2cc3c(cc2F)c(=O)c(C(=O)O)cn3Cc2ccc(C(F)(F)F)cc2)CC1 (stereo unspecified) | 4.122 | 50 µg/mL (≈ 75.3 µM) | 50 µg/mL (≈ 75.3 µM) | 50 µg/mL (≈ 75.3 µM) | 25 µg/mL (≈ 37.7 µM) | 50 µg/mL (≈ 75.3 µM) | 50 µg/mL (≈ 75.3 µM) | 50 µg/mL (≈ 75.3 µM) | 50 µg/mL (≈ 75.3 µM) | 12.5 µg/mL (≈ 18.8 µM) | 50 µg/mL (≈ 75.3 µM) | 50 µg/mL (≈ 75.3 µM) | 25 µg/mL (≈ 37.7 µM)
O=C(O)c1cn(Cc2ccc(C(F)(F)F)cc2)c2cc(N3CCN(C(c4ccncc4)c4nnnn4C4CCCCC4)CC3)c(F)cc2c1=O (stereo unspecified) | 4.14 | 50 µg/mL (≈ 72.4 µM) | 50 µg/mL (≈ 72.4 µM) | > 50 µg/mL | 50 µg/mL (≈ 72.4 µM) | 50 µg/mL (≈ 72.4 µM) | > 50 µg/mL | > 50 µg/mL | 50 µg/mL (≈ 72.4 µM) | > 50 µg/mL | 50 µg/mL (≈ 72.4 µM) | > 50 µg/mL | 50 µg/mL (≈ 72.4 µM)
CCn1cc(C(=O)O)c(=O)c2cc(F)c(N3CCN(C(c4ccc(OC)c5ccccc45)c4nnnn4C(C)(C)C)CC3)cc21 (stereo unspecified) | 4.69 | 12.5 µg/mL (≈ 20.4 µM) | 6.9 µg/mL (≈ 11.2 µM) | 7.5 µg/mL (≈ 12.2 µM) | 12.5 µg/mL (≈ 20.4 µM) | 18 µg/mL (≈ 29.3 µM) | 7 µg/mL (≈ 11.4 µM) | 50 µg/mL (≈ 81.5 µM) | 50 µg/mL (≈ 81.5 µM) | 12.5 µg/mL (≈ 20.4 µM) | 50 µg/mL (≈ 81.5 µM) | 50 µg/mL (≈ 81.5 µM) | 25 µg/mL (≈ 40.7 µM)
CCn1cc(C(=O)O)c(=O)c2cc(F)c(N3CCN(C(c4ccc(OC)c5ccccc45)c4nnnn4C4CCCCC4)CC3)cc21 (stereo unspecified) | 5.01 | 6.25 µg/mL (≈ 9.77 µM) | 9 µg/mL (≈ 14.1 µM) | 4.06 µg/mL (≈ 6.35 µM) | 25 µg/mL (≈ 39.1 µM) | 4.4 µg/mL (≈ 6.88 µM) | 1.7 µg/mL (≈ 2.66 µM) | 4.7 µg/mL (≈ 7.35 µM) | 3.6 µg/mL (≈ 5.63 µM) | 6.25 µg/mL (≈ 9.77 µM) | 6.9 µg/mL (≈ 10.8 µM) | 3.6 µg/mL (≈ 5.63 µM) | 12.5 µg/mL (≈ 19.5 µM)
O=C(O)c1cn(Cc2ccc(C(F)(F)F)cc2)c2cc(N3CCN(C(c4ccc(F)cc4)c4nnnn4C4CCCCC4)CC3)c(F)cc2c1=O (stereo unspecified) | 4.752 | 12.5 µg/mL (≈ 17.7 µM) | > 50 µg/mL | > 50 µg/mL | > 50 µg/mL | 12.5 µg/mL (≈ 17.7 µM) | 5.2 µg/mL (≈ 7.35 µM) | > 50 µg/mL | > 50 µg/mL | > 50 µg/mL | > 50 µg/mL | > 50 µg/mL | > 50 µg/mL
